Assay results: patent US12583858B2 (Genentech, Inc., priority 2015, dated 2026)

These compounds were tested against T1, TDO2 (Homo sapiens, UniProt P48775) (assay: TDO2 cell assay (NFK GreenScreen, SW48 cells)). Settings: SW48 cells (high TDO expressing), 200 uM tryptophan, 24 hours; Table 3; read-out: TDO2 Cell Fluor EC50.
T1 construct: decreased levels of NFK in SW48 cells (high TDO expressing cells)
Assay type: cell-based

T1 sequence (P48775 whole entry): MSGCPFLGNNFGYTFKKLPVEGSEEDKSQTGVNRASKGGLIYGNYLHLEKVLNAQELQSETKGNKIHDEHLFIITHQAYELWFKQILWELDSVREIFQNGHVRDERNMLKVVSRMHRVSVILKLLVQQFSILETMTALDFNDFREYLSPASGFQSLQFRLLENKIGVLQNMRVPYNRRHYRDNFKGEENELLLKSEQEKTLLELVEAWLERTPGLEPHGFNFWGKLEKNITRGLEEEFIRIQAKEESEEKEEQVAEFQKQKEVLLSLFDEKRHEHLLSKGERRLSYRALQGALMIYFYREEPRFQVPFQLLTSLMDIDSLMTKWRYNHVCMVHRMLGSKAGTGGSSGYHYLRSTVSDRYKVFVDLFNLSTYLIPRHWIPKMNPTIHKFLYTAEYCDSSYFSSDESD

Row | Compound | EC50
1 | OC1CC2(CC2)C1C1c2ccccc2-c2cncn21 (single isomer, unassigned) [Example 72d] | 9000 nM
2 | OC1(C2c3ccccc3-c3cncn32)CCOC1 (single isomer, unassigned) [Example 129a] | > 25000 nM
3 | OC1CCCOCC1C1c2ccccc2-c2cncn21 (single isomer, unassigned) [Example 86a] | 14000 nM
4 | OC1C(C2c3ccccc3-c3cncn32)CC12CCOCC2 (single isomer, unassigned) [Example 57h] | > 25000 nM
5 | Cn1ncc2c1CCC(C1c3ccccc3-c3cncn31)C2O (single isomer, unassigned) [Example 93d] | 1400 nM
6 | OC1c2ccnn2CCC1C1c2ccccc2-c2cncn21 (single isomer, unassigned) [Example 56g] | > 25000 nM
7 | OC1(C2c3ccccc3-c3cncn32)CCCC1 (racemic) [Example 55, 1-(5H-imidazo[5,1-a]isoindol-5-yl)cyclopentan-1-ol] | 1600 nM
8 | OC1(C2c3ccccc3-c3cncn32)CCCc2ccncc21 (single isomer, unassigned) [Example 141a] | 17000 nM
9 | NC(=O)c1nc2c(s1)CCC(C1c3ccccc3-c3cncn31)C2O (single isomer, unassigned) [Example 149f] | > 25000 nM
10 | OC1c2cccnc2CCC1C1c2ccccc2-c2cncn21 (single isomer, unassigned) [Example 31d] | > 25000 nM
11 | OC1c2nonc2CCC1C1c2ccccc2-c2cncn21 (single isomer, unassigned) [Example 163e] | 6100 nM
12 | OC1c2ccnn2CCCC1C1c2ccccc2-c2cncn21 (single isomer, unassigned) [Example 133a] | > 25000 nM
13 | OC1CC2(CCC2)C1C1c2ccccc2-c2cncn21 (single isomer, unassigned) [Example 67g] | 2400 nM
14 | CN1CC[C@H]([C@H]2c3ccccc3-c3cncn32)[C@@H](O)C1 [Example 83a, (3R,4R)-4-[(5S)-5H-imidazo[4,3-a]isoindol-5-yl]-1-methylpiperidin-3-ol] | > 25000 nM
15 | CC[C@H](O)[C@@H]1c2ccccc2-c2cncn21 [Example 137b, (S)-1-((S)-5H-imidazo[5,1-a]isoindol-5-yl)propan-1-ol] | 7900 nM
16 | N[C@@H]1COC[C@@H]1[C@H]1c2ccccc2-c2cncn21 [Example 32d, (3S,4S)-4-[(5S)-5H-imidazo[4,3-a]isoindol-5-yl]oxolan-3-amine] | > 25000 nM
17 | Cc1ccc2c(c1)C(C1COCC1O)n1cncc1-2 (single isomer, unassigned) [Example 110c] | 3900 nM
18 | NS(=O)(=O)c1ccc2c(c1)CCC(C1c3ccccc3-c3cncn31)C2O (single isomer, unassigned) [Example 100d] | > 25000 nM
19 | N#Cc1ccc2c(c1)CCC(C1c3ccccc3-c3cncn31)C2O (single isomer, unassigned) [Example 62f] | 2500 nM
20 | N#CC1CCC(O)(C2c3ccccc3-c3cncn32)CC1 (single isomer, unassigned) [Example 145a] | 4200 nM
21 | O[C@@H]1c2cnccc2CC[C@@H]1[C@H]1c2ccccc2-c2cncn21 (single isomer, unassigned) [Example 04d] | 20000 nM
22 | O[C@H]1c2ncccc2CC[C@H]1[C@H]1c2ccccc2-c2cncn21 [Example 63c, (7S,8R)-7-((S)-5H-imidazo[5,1-a]isoindol-5-yl)-5,6,7,8-tetrahydroquinolin-8-ol] | 20000 nM

Row | Compound | EC50
23 | CCS(=O)(=O)N1CCC2(CC1)CC(C1c3ccccc3-c3cncn31)C2O (single isomer, unassigned) [Example 114e] | 1200 nM
24 | Cn1ncc2c1CCC(C1c3ccccc3-c3cncn31)C2O (single isomer, unassigned) [Example 93b] | 5500 nM
25 | N#CC1(C(O)C2c3ccccc3-c3cncn32)CC1 (single isomer, unassigned) [Example 153b] | 11000 nM
26 | CC(C)(C)OC(=O)N1CCC(C2c3ccccc3-c3cncn32)C(O)C1 (single isomer, unassigned) [Example 10a, tert-butyl 3-hydroxy-4-(5H-imidazo[5,1-a]isoindol-5-yl)piperidine-1-carboxylate] | 2100 nM
27 | OC1c2cnccc2CC1C1c2ccccc2-c2cncn21 (single isomer, unassigned) [Example 71f] | > 25000 nM
28 | Nc1ncc2c(n1)CCC(C1c3ccccc3-c3cncn31)C2O (single isomer, unassigned) [Example 111e] | 5700 nM
29 | O[C@H]1CC[C@@H]1[C@@H]1c2ccccc2-c2cncn21 [Example 01c, (1S,2R)-2-((R)-5H-imidazo[5,1-a]isoindol-5-yl)cyclobutan-1-ol] | > 25000 nM
30 | OC1c2cncnc2CCC1C1c2ccccc2-c2cncn21 (single isomer, unassigned) [Example 94h] | > 25000 nM
31 | OC1c2nncn2CCC1C1c2ccccc2-c2cncn21 (single isomer, unassigned) [Example 146-1b] | 7400 nM
32 | N#Cc1cnn2c1[C@@H](O)[C@H]([C@H]1c3ccccc3-c3cncn31)CC2 (single isomer, unassigned) [Example 156f] | > 25000 nM
33 | OC1C(C2c3ccc(F)cc3-c3cncn32)CC12CCOCC2 (single isomer, unassigned) [Example 109f] | > 25000 nM
34 | OC1c2cnccc2CC1C1c2ccccc2-c2cncn21 (single isomer, unassigned) [Example 71a] | 17000 nM
35 | OC1CCOCC1C1c2cccc(F)c2-c2cncn21 (single isomer, unassigned) [Example 170b] | 2100 nM
36 | CC1(C)CCC(C2c3ccccc3-c3cncn32)C1O (single isomer, unassigned) [Example 23a] | > 25000 nM
37 | Cn1ncc2c1CCC(C1c3ccccc3-c3cncn31)C2O (single isomer, unassigned) [Example 93g] | > 25000 nM
38 | OC1c2nncn2CCC1C1c2ccccc2-c2cncn21 (single isomer, unassigned) [Example 146-1d] | 12000 nM
39 | OCC(O)C1c2ccccc2-c2cncn21 (single isomer, unassigned) [Example 49a, 1-(5H-imidazo[5,1-a]isoindol-5-yl)ethane-1,2-diol] | 18000 nM
40 | OC1COCCC1C1c2c(Cl)cccc2-c2cncn21 (single isomer, unassigned) [Example 69-1a] | > 25000 nM
41 | OC1c2ccccc2CC1C1c2ccccc2-c2cncn21 (single isomer, unassigned) [Example 19a] | 7400 nM
42 | O[C@@H](C1CCCCC1)[C@H]1c2ccccc2-c2cncn21 [Example 148b, (S)-cyclohexyl((R)-5H-imidazo[5,1-a]isoindol-5-yl)methanol] | 16000 nM
43 | OC1(C2c3ccccc3-c3cncn32)CCOC1 (single isomer, unassigned) [Example 129b] | 17000 nM

These reach a lower EC50. Values come first.

Row | EC50 | Compound
44 | 1000 nM | OC1c2cnnn2CCC1C1c2ccccc2-c2cncn21 (single isomer, unassigned) [Example 139b]
45 | 1000 nM | OC1c2cnccc2CCC1C1c2ccccc2-c2cncn21 (single isomer, unassigned) [Example 04c]
46 | 790 nM | CS(=O)(=O)N1CCC2(CC1)CC(C1c3ccccc3-c3cncn31)C2O (single isomer, unassigned) [Example 179g]
47 | 740 nM | NC(=O)c1ccc2c(c1)CCC(C1c3ccccc3-c3cncn31)C2O (single isomer, unassigned) [Example 60d]
48 | 620 nM | OC1C(C2c3ccc(F)cc3-c3cncn32)CC12CCOCC2 (single isomer, unassigned) [Example 109a]
49 | 520 nM | OC1CCOCC1C1c2cc(F)ccc2-c2cncn21 (single isomer, unassigned) [Example 75d]
50 | 370 nM | NC(=O)c1ccc2c(c1)C(O)C(C1c3ccccc3-c3cncn31)CC2 (single isomer, unassigned) [Example 122d]
51 | 370 nM | CS(=O)(=O)N1CCC2(CCC(C3c4ccccc4-c4cncn43)C2O)CC1 (single isomer, unassigned) [Example 180a]
52 | 340 nM | CC1(C)CCCC(C2c3ccccc3-c3cncn32)C1O (single isomer, unassigned) [Example 24g]
53 | 340 nM | OC1CCOCC1C1c2c(F)cccc2-c2cncn21 (single isomer, unassigned) [Example 73c]
54 | 330 nM | NC(=O)c1ccc2c(n1)CCC(C1c3ccccc3-c3cncn31)C2O (single isomer, unassigned) [Example 104g]
55 | 210 nM | Cn1cc2c(n1)C(O)C(C1c3ccccc3-c3cncn31)CC2 (single isomer, unassigned) [Example 139-1f]
56 | 200 nM | O[C@H]1c2c(Cl)cnn2CC[C@H]1[C@H]1c2ccccc2-c2cncn21 [Example 160b, (4R,5S)-3-chloro-5-((S)-5H-imidazo[5,1-a]isoindol-5-yl)-4,5,6,7-tetrahydropyrazolo[1,5-a]pyridin-4-ol]
57 | 160 nM | CN(C)S(=O)(=O)N1CC[C@@H]([C@H]2c3ccccc3-c3cncn32)[C@H](O)C1 [Example 78b]
58 | 140 nM | CC1(C)OCC(C2c3ccccc3-c3cncn32)C1O (single isomer, unassigned) [Example 85g]
59 | 120 nM | OC1C(C2c3ccccc3-c3cncn32)CCC12CCOCC2 (single isomer, unassigned) [Example 68f]
60 | 110 nM | OC1CCC(F)(F)CC1C1c2ccccc2-c2cncn21 (single isomer, unassigned) [Example 18g, 4,4-difluoro-2-(5H-imidazo[5,1-a]isoindol-5-yl)cyclohexan-1-ol]
61 | 99 nM | OC1CCCC1C1c2ccc(F)cc2-c2cncn21 (single isomer, unassigned) [Example 20d]
62 | 56 nM | NS(=O)(=O)N1CC[C@@H]([C@@H]2c3ccccc3-c3cncn32)[C@H](O)C1 (single isomer, unassigned) [Example 39d]
63 | 44 nM | OC1CC2(CCC2)C1C1c2ccccc2-c2cncn21 (single isomer, unassigned) [Example 67e]
64 | 36 nM | OC1CCCCC1C1c2ccccc2-c2cncn21 (single isomer, unassigned) [Example 03d]
